Measurements from PubChem BioAssay (NCI).
Several values for one entry are separate records, joined by “and”; a condition that tells them apart may be missing. Equal entries are not always repeated.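 Step 1: Grow cells in 96-well plates. Step 2: Expose to compound for 48 hours at 5 concentrations. Step 3: Interpolate endpoints linearly; if unreached, use highest concentration. At the GI50, growth is halved. TGI: concentration producing complete growth inhibition.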

Experiments:
Assay in all cases: NCI-60 cell line screen, 48 h; in the data active = GI50 below about 0.43 µM; inactive = the rest
ACHN renal = system: ACHN renal
BT-549 breast = system: BT-549 breast
DU-145 prostate = system: DU-145 prostate
HL-60(TB) leukemia = system: HL-60(TB) leukemia
HOP-92 NSCLC = system: HOP-92 NSCLC
MALME-3M melanoma = system: MALME-3M melanoma
OVCAR-5 ovarian = system: OVCAR-5 ovarian
SF-295 CNS = system: SF-295 CNS
UACC-62 melanoma = system: UACC-62 melanoma
UO-31 renal = system: UO-31 renal
A549 NSCLC = system: A549 NSCLC
HCT-15 colon = system: HCT-15 colon
HT29 colon = system: HT29 colon
K-562 leukemia = system: K-562 leukemia
KM12 colon = system: KM12 colon
LOX IMVI melanoma = system: LOX IMVI melanoma
M14 melanoma = system: M14 melanoma
MDA-MB-231 breast = system: MDA-MB-231 breast
MDA-MB-435 = system: MDA-MB-435
NCI-H460 lung = system: NCI-H460 lung
NCI/ADR-RES ovarian = system: NCI/ADR-RES ovarian
OVCAR-8 ovarian = system: OVCAR-8 ovarian
SF-268 CNS = system: SF-268 CNS
SF-539 CNS = system: SF-539 CNS
SK-MEL-28 melanoma = system: SK-MEL-28 melanoma
SNB-75 CNS = system: SNB-75 CNS
TK-10 renal = system: TK-10 renal
U251 CNS = system: U251 CNS

N=C(N)c1ccc(-c2ccc(-c3ccc(Cl)cc3Cl)s2)cc1
3290 nM: TGI (MALME-3M melanoma) | TGI (OVCAR-5 ovarian)
inactive: GI50 (ACHN renal) 1700 nM | GI50 (BT-549 breast) 2180 nM | GI50 (DU-145 prostate) 1790 nM | GI50 (HL-60(TB) leukemia) 1970 nM | GI50 (HOP-92 NSCLC) 1580 nM | GI50 (MALME-3M melanoma) 1740 nM | GI50 (OVCAR-5 ovarian) 1790 nM | GI50 (SF-295 CNS) 1770 nM | GI50 (UACC-62 melanoma) 1730 nM | GI50 (UO-31 renal) 1580 nM
6620 nM: TGI (BT-549 breast)
3190 nM: TGI (DU-145 prostate) | TGI (SF-295 CNS) | TGI (UACC-62 melanoma)
3170 nM: TGI (HOP-92 NSCLC)
3070 nM: TGI (ACHN renal)
4490 nM: TGI (HL-60(TB) leukemia)
3000 nM: TGI (UO-31 renal)

Cc1nc(Nc2ncc(C(=O)Nc3c(C)cccc3Cl)s2)cc(N2CCN(CCO)CC2)n1
> 10000 nM and 20000 nM and 13500 nM: TGI (DU-145 prostate)
29000 nM and > 10000 nM and 20000 nM: TGI (SK-MEL-28 melanoma)
792 nM [middle of 4 runs]: GI50 (HCT-15 colon)
inactive: GI50 (KM12 colon) 7.66 µM [middle of 4 runs] | GI50 (M14 melanoma) 3.51 µM [middle of 4 runs] | GI50 (MALME-3M melanoma) 6.6 µM [middle of 4 runs] | GI50 (MDA-MB-435) 5.7 µM [middle of 4 runs] | GI50 (NCI-H460 lung) 8.34 µM [middle of 4 runs] | GI50 (NCI/ADR-RES ovarian) 3.2 µM [middle of 4 runs] | GI50 (U251 CNS) 3.17 µM [middle of 4 runs] | GI50 (UACC-62 melanoma) 5.69 µM [middle of 4 runs]
active: GI50 (A549 NSCLC) 49.9 nM [middle of 4 runs] | GI50 (DU-145 prostate) 158 nM [middle of 4 runs] | GI50 (HT29 colon) 19.7 nM and 19.3 nM and 27.2 nM | GI50 (K-562 leukemia) < 10 nM and 2 nM | GI50 (LOX IMVI melanoma) 14.2 nM [middle of 4 runs] | GI50 (MDA-MB-231 breast) 19.7 nM [middle of 4 runs] | GI50 (OVCAR-5 ovarian) 38.1 nM [middle of 4 runs] | GI50 (OVCAR-8 ovarian) 55.8 nM [middle of 4 runs] | GI50 (SF-268 CNS) 70.4 nM [middle of 4 runs] | GI50 (SF-539 CNS) 53.3 nM [middle of 4 runs] | GI50 (SNB-75 CNS) < 10 nM and 4.68 nM and < 11.1 nM | GI50 (TK-10 renal) 22.2 nM and 10.9 nM and 8.43 nM
25.7 nM and 56.3 nM and 58.7 nM: TGI (SNB-75 CNS)
